Test results: US6855712B2, “Combination of benzoquinazoline antifolates and protecting agents” (SmithKline Beecham Corporation, priority 1992, dated 2005)

Legend:
beagle dogs = assay: Dog toxicity of Compound A given as iv bolus for five consecutive days, with or without oral folic acid or leucovorin; type: in vivo
human tumor GC3TK = assay: Mouse antitumor: human tumor GC3TK in the subrenal capsule of nude mice, Compound A ip bolus for five days; type: in vivo

**Q.** With Cc1nc2ccc3ccc(CNc4ccc5c(c4)CN([C@@H](CCC(=O)O)C(=O)O)C5=O)cc3c2c(=O)[nH]1 [Compound A, (S)-2-(5-(((1,2-Dihydro-3-methyl-1-oxobenzo[f]quinazolin-9-yl)methyl)amino)-1-oxo-2-isoindolinyl)glutaric acid] as the compound, how does the lethality (beagle dogs; 8 mg/kg iv bolus for five consecutive days, alone) read?
**A.** lethal

**Q.** What about the deaths (beagle dogs; 10 mg/kg iv 30 minutes after oral leucovorin (Wellcovorin) 10 mg/kg) of the same compound?
**A.** no deaths occurred

**Q.** And the deaths (beagle dogs; 10 mg/kg iv 30 minutes after oral leucovorin (Wellcovorin) 50 mg/kg)?
**A.** no deaths occurred

**Q.** And the deaths (beagle dogs; 10 mg/kg iv 30 minutes after oral leucovorin (Wellcovorin) 100 mg/kg)?
**A.** no deaths occurred

**Q.** What about the deaths (beagle dogs; 10 mg/kg iv 30 minutes after oral leucovorin (Wellcovorin) 200 mg/kg) of the same compound?
**A.** no deaths occurred

**Q.** What about the lethality (beagle dogs; 10 mg/kg iv, five consecutive days, given alone) of the same compound?
**A.** lethal

**Q.** And the lethality (beagle dogs; 20 mg/kg iv bolus 30 minutes after oral folic acid 50 mg/kg)?
**A.** not lethal

**Q.** And the “Mouse antiumor (% I)” value (human tumor GC3TK; 3.2 mg/kg Compound A, folic acid 0 mg/kg, experiment with 50 mg/kg folic acid)?
**A.** 100 % I

**Q.** What about the “Mouse antitumor (% I)” value (human tumor GC3TK; 3.2 mg/kg Compound A, folic acid 0 mg/kg, experiment with 500 mg/kg folic acid) of the same compound?
**A.** 89 % I

**Q.** What about the “Mouse antiumor (% I)” value (human tumor GC3TK; 3.2 mg/kg Compound A, folic acid 50 mg/kg) of the same compound?
**A.** 100 % I

**Q.** And the “Mouse antitumor (% I)” value (human tumor GC3TK; 3.2 mg/kg Compound A, folic acid 500 mg/kg)?
**A.** 78 % I

**Q.** What about the “Mouse antitumor (% I)” value (human tumor GC3TK; 3.2 mg/kg Compound A, leucovorin 0 mg/kg) of the same compound?
**A.** 100 % I

**Q.** And the “Mouse antitumor (% I)” value (human tumor GC3TK; 3.2 mg/kg Compound A, leucovorin 200 mg/kg)?
**A.** 100 % I

**Q.** What about the “inhibition of tumor growth” value (human tumor GC3TK; 3.2 mg/kg ip bolus for five days, no protectant) of the same compound?
**A.** complete inhibition of tumor growth

**Q.** And the “Mouse antitumor (% I)” value (human tumor GC3TK; 10 mg/kg Compound A, folic acid 0 mg/kg, experiment with 50 mg/kg folic acid)?
**A.** >100 % I

**Q.** What about the “Mouse antitumor (% I)” value (human tumor GC3TK; 10 mg/kg Compound A, folic acid 0 mg/kg, experiment with 500 mg/kg folic acid) of the same compound?
**A.** >100 % I

**Q.** What about the “Mouse antitumor (% I)” value (human tumor GC3TK; 10 mg/kg Compound A, folic acid 50 mg/kg) of the same compound?
**A.** >100 % I

**Q.** What about the “Mouse antitumor (% I)” value (human tumor GC3TK; 10 mg/kg Compound A, folic acid 500 mg/kg) of the same compound?
**A.** >100 % I

**Q.** What about the “Mouse antitumor (% I)” value (human tumor GC3TK; 10 mg/kg Compound A, leucovorin 0 mg/kg) of the same compound?
**A.** >100 % I

**Q.** What about the “Mouse antitumor (% I)” value (human tumor GC3TK; 10 mg/kg Compound A, leucovorin 200 mg/kg) of the same compound?
**A.** >100 % I

**Q.** What about the “inhibition of tumor growth” value (human tumor GC3TK; 10 mg/kg ip bolus for five days, no protectant) of the same compound?
**A.** complete inhibition of tumor growth

**Q.** And the “inhibition of tumor growth” value (human tumor GC3TK; 50 mg/kg folic acid orally 30 minutes prior to the ip bolus dose of Compound A (3.2 or 10 mg/kg))?
**A.** complete inhibition of tumor growth

**Q.** And the “inhibition of tumor growth” value (human tumor GC3TK; 200 mg/kg leucovorin orally 30 minutes prior to the ip bolus dose of Compound A (3.2 or 10 mg/kg))?
**A.** complete inhibition of tumor growth

**Q.** And the inhibition (human tumor GC3TK; another experiment, 3.2 mg/kg, absence of protectant)?
**A.** 89%

**Q.** And the growth inhibition (human tumor GC3TK; another experiment, 10 mg/kg, absence of protectant)?
**A.** complete growth inhibition

**Q.** And the “tumor growth inhibition versus absence of folic acid” value (human tumor GC3TK; another experiment, 500 mg/kg folic acid orally 30 min prior to Compound A)?
**A.** not significantly different
